Earlier results as cited in patent US5882682A (Merck & Co., Inc., priority 1997, dated 1999).
≈ marks a conversion by molar mass, not a printed value.

Columns and labels:
[1] = humans

Compound | aqueous solubility (in words) | reduction of serum cholesterol levels [1] | aqueous solubility (water)
CC(=O)Nc1ccc(O)cc1 [acetominophren, acetaminophen] | moderately soluble | – | –
COc1ccc2c(c1)c(CC(=O)O)c(C)n2C(=O)c1ccc(Cl)cc1 [indomethacin] | poorly aqueous soluble | – | –
CC[C@H](C)C(=O)O[C@H]1C[C@@H](C)C=C2C=C[C@H](C)[C@H](CC[C@@H]3C[C@@H](O)CC(=O)O3)[C@H]21 [lovastatin] | – | highly effective | 0.44 µg/mL (≈ 1.09 µM)
CCC(C)(C)C(=O)O[C@H]1C[C@@H](C)C=C2C=C[C@H](C)[C@H](CC[C@@H]3C[C@@H](O)CC(=O)O3)[C@H]21 [simvastatin] | – | highly effective | –
